Results: US20060019855A1, “Composition for a bactericidal, disinfecting, and cleansing foam agent” (priority 2004, published 2006)

How the values were obtained:
Assay in all cases: Antibacterial effect test
[1] = tested on: Staphylococcus aureus ATCC25923; format: cell-based; settings: for antibacterial effects (in words): S. aureus
Experimental: (§1) Antibacterial Effect Test
(§2) Composition of Example 1: The composition of Example 1 was filled in a pump foamer (manufactured by DAIWA CAN COMPANY).
(§3) Ethanol gel: A hand cleansing gel made by […] CO. LTD. (ethanol content: 70%, formulated with aloe extract).
Staphylococcus aureus ATCC25923
Nutrient Agar (Difco) was employed for S. aureus ATCC25923.
(§4) 1) The respective strains were incubated overnight in TSB at 37° C. The bacterial suspensions were diluted with physiologic saline to have a concentration of approximately 10^4 CFU/ml each.
(§5) 2) Next, 4.5 g each of the test samples were added to dishes (Composition of Example 1 and Control composition were added in a foamed state.). Thereafter, 0.5 ml each of the bacterial suspensions obtained in the process 1) was inoculated thereinto and mixed well. For every combination (12 combinations in total) of the four test samples and the three bacterial suspensions, two sample dishes were prepared in this manner.
(§6) 3) Regarding the first ones of these sample dishes, the number of bacteria was counted immediately after inoculation of the bacterial suspensions, and also after one and two hours of incubation at 37° C. For incubation, the dishes were put in an incubator, with the lids slightly open. To count the number of bacteria of each strain, two agar media were respectively inoculated with 0.1 ml of the bacterial suspension and incubated for 24 hours at 37° C. Later, the number of colonies in both agar media was counted and averaged.
(§7) 4) The second ones of the sample dishes prepared in the process 2) were incubated for two hours at 37° C. after inoculation of the bacterial suspensions. Thereafter, 0.5 ml each of the corresponding bacterial suspensions was again inoculated thereinto and mixed well. The number of bacteria was counted immediately after reinoculation of the bacterial suspensions, and also after one and two hours of incubation at 37° C., in the same manner as in the process 3).
(§8) In Tables 2-4, “B” indicates the theoretical number of bacteria in the mixtures of the bacterial suspensions and the test samples. The symbol “*” indicates reinoculation.

Escherichia coli FMK1254 = format: cell-based; settings: for antibacterial effects (in words): E. coli
Experimental: as §1, §2, §3
(§9) MacConkey Agar (Difco) was employed for E. coli FMK1254 and Pathogenic E. coli 0157:H7 SAKAI.
as §4, §5, §6, §7, §8

[2] = tested on: Pathogenic E. coli O157:H7 Sakai; format: cell-based, Escherichia coli; settings: for number of bacteria: Pathogenic E. coli O157:H7 Sakai; for antibacterial effects (in words): pathogenic E. coli
Experimental: as §1, §2
Ethanol gel: A hand cleansing gel made by FUMAKILLA CO. LTD. (ethanol content: 70%, formulated with aloe extract).
Pathogenic Escherichia coli 0157:H7 Sakai
as §9, §4, §5, §6, §7, §8

[3] = after two hours of reinoculation

SMILES: CCO [70% Ethanol, Ethanol]
- number of bacteria ([1]; S. aureus ATCC25923, 1 hour at 37° C. after inoculation): ≦9 CFU/ml
- number of bacteria ([1]; S. aureus ATCC25923, 1 hour at 37° C. after reinoculation): 75 CFU/ml
- number of bacteria ([1]; S. aureus ATCC25923, 2 hours at 37° C. after inoculation): ≦9 CFU/ml
- number of bacteria ([1]; S. aureus ATCC25923, 2 hours at 37° C. after reinoculation): 45 CFU/ml
- number of bacteria ([1]; S. aureus ATCC25923, immediately after inoculation (0)): ≦9 CFU/ml
- number of bacteria ([1]; S. aureus ATCC25923, immediately after reinoculation (0*)): 180 CFU/ml
- antibacterial effects (in words) ([1]; after two hours of inoculation): excellent
- antibacterial effects (in words) [1, 3]: not sufficient
- number of bacteria (Escherichia coli FMK1254; E. coli FMK1254, 1 hour at 37° C. after reinoculation): 4095 CFU/ml
- number of bacteria (Escherichia coli FMK1254; E. coli FMK1254, 1 hour of incubation at 37° C. after inoculation): ≦9 CFU/ml
- number of bacteria (Escherichia coli FMK1254; E. coli FMK1254, 2 hours at 37° C. after reinoculation): 2195 CFU/ml
- number of bacteria (Escherichia coli FMK1254; E. coli FMK1254, 2 hours of incubation at 37° C. after inoculation): ≦9 CFU/ml
- number of bacteria (Escherichia coli FMK1254; E. coli FMK1254, immediately after inoculation (0)): ≦9 CFU/ml
- number of bacteria (Escherichia coli FMK1254; E. coli FMK1254, immediately after reinoculation (0*)): 2280 CFU/ml
- antibacterial effects (in words) (Escherichia coli FMK1254; after two hours of inoculation): excellent
- antibacterial effects (in words) (Escherichia coli FMK1254; [3]): totally lost
- number of bacteria ([2]; 1 hour at 37° C. after inoculation): ≦9 CFU/ml
- number of bacteria ([2]; 1 hour at 37° C. after reinoculation): ≧30000 CFU/ml
- number of bacteria ([2]; 2 hours at 37° C. after inoculation): ≦9 CFU/ml
- number of bacteria ([2]; 2 hours at 37° C. after reinoculation): ≧30000 CFU/ml
- number of bacteria ([2]; immediately after inoculation (0)): ≦9 CFU/ml
- number of bacteria ([2]; immediately after reinoculation (0*)): ≧30000 CFU/ml
- antibacterial effects (in words) ([2]; after two hours of inoculation): excellent
- antibacterial effects (in words) [2, 3]: totally lost
